Among the data in patent US9694016B2 (Novartis AG, priority 2013, dated 2017) are IC50 values, retold here.

SMILES strings stand for the structures. pIC50: −log10 of the molar value.

For the first assay, the target named is C-Raf TR (truncated C-Raf protein, Δ1-324 deletion mutant) (Homo sapiens (Human), UniProt P04049).
Assay: not given
The class given is biochemical. The following applies: truncated C-Raf approximately 4 nM, ATP 1 uM, 60 min pre-incubation, 1 hour reaction. As for the experimental part:
biotinylated Mek, kinase dead
biotinylated Mek, Kinase dead approximately 10 nM
Regarding `Cc1ccc(C(=O)Nc2cccc(C(F)(F)F)c2)cc1-c1nc(N2CCOCC2)cc(N2CCOCC2)n1` [Example 14, 3-(4,6-dimorpholinopyrimidin-2-yl)-4-methyl-N-(3-(trifluoromethyl)phenyl)benzamide], the pIC50 was 9.10.

`Cc1ccc(C(=O)Nc2cccc(C(F)(F)F)c2)cc1-c1ccnc(N2CCOCC2)c1` [Example 63, 4-Methyl-3-(2-morpholinopyridin-4-yl)-N-(3-(trifluoromethyl)phenyl)benzamide] showed a pIC50 of 9.29.

As to `Cc1ccc(NC(=O)c2cccc(C(F)(F)F)c2)cc1-c1cncc(N2CCOCC2)n1` [Example 118, N-(4-methyl-3-(6-morpholinopyrazin-2-yl)phenyl)-3-(trifluoromethyl)benzamide], the pIC50 is 9.51.

Compound `Cc1ccc(NC(=O)c2cccc(C(F)(F)F)c2)cc1-c1cn(C)c(=O)c(N2CCOCC2)n1` [Example 119, N-(4-methyl-3-(4-methyl-6-morpholino-5-oxo-4,5-dihydropyrazin-2-yl)phenyl)-3-(trifluoromethyl)benzamide] showed a pIC50 of 9.57.

`Cc1ccc(NC(=O)c2cccc(C(F)(F)F)c2)cc1-c1csc(N2CCOCC2)n1` [Example 199, N-(4-methyl-3-(2-morpholinothiazol-4-yl)phenyl)-3-(trifluoromethyl)benzamide] had a pIC50 of 8.89.

Another assay deals with T1, b-Raf (V600E) (Homo sapiens (Human), UniProt P15056, V600E).
T1 sequence (P15056 whole entry V600E): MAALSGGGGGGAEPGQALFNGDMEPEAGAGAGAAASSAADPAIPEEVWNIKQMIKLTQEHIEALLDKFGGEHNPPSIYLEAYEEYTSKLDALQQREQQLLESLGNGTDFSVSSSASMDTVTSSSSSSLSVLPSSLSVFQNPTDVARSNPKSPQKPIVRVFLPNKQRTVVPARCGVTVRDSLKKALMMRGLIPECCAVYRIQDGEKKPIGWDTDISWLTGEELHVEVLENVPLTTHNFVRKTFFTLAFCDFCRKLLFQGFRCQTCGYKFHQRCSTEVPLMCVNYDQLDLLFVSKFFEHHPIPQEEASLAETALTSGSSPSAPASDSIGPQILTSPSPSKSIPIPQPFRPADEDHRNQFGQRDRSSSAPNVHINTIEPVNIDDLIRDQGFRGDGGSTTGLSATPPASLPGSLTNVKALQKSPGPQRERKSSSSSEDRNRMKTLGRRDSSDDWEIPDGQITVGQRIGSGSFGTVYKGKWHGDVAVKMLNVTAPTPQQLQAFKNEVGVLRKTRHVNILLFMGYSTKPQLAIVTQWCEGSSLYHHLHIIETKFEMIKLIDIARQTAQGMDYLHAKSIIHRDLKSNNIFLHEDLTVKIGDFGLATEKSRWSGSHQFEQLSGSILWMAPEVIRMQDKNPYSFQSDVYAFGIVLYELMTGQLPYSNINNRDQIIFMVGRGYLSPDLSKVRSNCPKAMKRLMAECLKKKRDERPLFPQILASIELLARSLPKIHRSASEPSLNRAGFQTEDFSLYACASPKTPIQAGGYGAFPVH
Assay: not given
The following applies: read-out: b-Raf IC-50; Table 2; AlphaScreen, 3 hours reaction. For orientation: Alpha assays give light when donor and acceptor beads are brought close together.
For `Cc1ccc(C(=O)Nc2cccc(C(F)(F)F)c2)cc1-c1ccnc(N2CCOCC2)c1` [Example 63, 4-Methyl-3-(2-morpholinopyridin-4-yl)-N-(3-(trifluoromethyl)phenyl)benzamide], the pIC50 was 8.68.

Turning to `Cc1ccc(NC(=O)c2cccc(C(F)(F)F)c2)cc1-c1cncc(N2CCOCC2)n1` [Example 118, N-(4-methyl-3-(6-morpholinopyrazin-2-yl)phenyl)-3-(trifluoromethyl)benzamide], the pIC50 was 9.15.

Consider `Cc1ccc(NC(=O)c2cccc(C(F)(F)F)c2)cc1-c1cn(C)c(=O)c(N2CCOCC2)n1` [Example 119, N-(4-methyl-3-(4-methyl-6-morpholino-5-oxo-4,5-dihydropyrazin-2-yl)phenyl)-3-(trifluoromethyl)benzamide], for which the pIC50 was 9.40.

`Cc1ccc(NC(=O)c2cccc(C(F)(F)F)c2)cc1-c1csc(N2CCOCC2)n1` [Example 199, N-(4-methyl-3-(2-morpholinothiazol-4-yl)phenyl)-3-(trifluoromethyl)benzamide]: the pIC50 was 8.44.

In the next assay the target is T1, b-Raf (V600E). The experiment in a line: biochemical.
Details: not given
Compound `CCOc1ncc(-c2cc(C(=O)Nc3cccc(C(C)(C)O)c3)ccc2C)cc1N1CCOCC1` [Example 236, 3-(6-ethoxy-5-morpholinopyridin-3-yl)-N-(3-(2-hydroxypropan-2-yl)phenyl)-4-methylbenzamide] had a pIC50 of 8.80.

`Cc1ccc(NC(=O)c2ccc(CO)c(C(F)(F)F)c2)cc1-c1cc(N2CCOCC2)c(=O)n(C)c1` [Example 462, 4-(hydroxymethyl)-N-(4-methyl-3-(1-methyl-5-morpholino-6-oxo-1,6-dihydropyridin-3-yl)phenyl)-3-(trifluoromethyl)benzamide] showed a pIC50 of 8.43.

The compound `Cc1ccc(C(=O)Nc2ccc(CN)c(C(F)(F)F)c2)cc1-c1cc(N2CCOCC2)c(=O)n(C)c1` [Example 467, N-(4-(aminomethyl)-3-(trifluoromethyl)phenyl)-4-methyl-3-(1-methyl-5-morpholino-6-oxo-1,6-dihydropyridin-3-yl)benzamide] gave a pIC50 of 7.92.

On to `Cc1ccc(NC(=O)c2cc(CO)cc(C(F)(F)F)c2)cc1-c1cc(N2CCOCC2)c(=O)n(C)c1` [Example 469, 3-(hydroxymethyl)-N-(4-methyl-3-(1-methyl-5-morpholino-6-oxo-1,6-dihydropyridin-3-yl)phenyl)-5-(trifluoromethyl)benzamide], for which the pIC50 was 8.51.

The compound `Cc1ccc(NC(=O)c2ccnc(C(C)(F)F)c2)cc1-c1cc(N2CCOCC2)n(C)c(=O)c1` [Example 471, 2-(1,1-difluoroethyl)-N-(4-methyl-3-(1-methyl-6-morpholino-2-oxo-1,2-dihydropyridin-4-yl)phenyl)isonicotinamide] had a pIC50 of 9.00.

With `CCOc1nnc(-c2cc(NC(=O)c3cccc(S(C)(=O)=O)c3)ccc2C)cc1N1CCOCC1` [Example 559, N-(3-(6-ethoxy-5-morpholinopyridazin-3-yl)-4-methylphenyl)-3-(methylsulfonyl)benzamide], the pIC50 was 9.05.

With `Cc1ccc(NC(=O)c2cnnc(C(F)(F)F)c2)cc1-c1cc(N2CCOCC2)c(OC2CCOCC2)nn1` [Example 577, N-(4-methyl-3-(5-morpholino-6-((tetrahydro-2H-pyran-4-yl)oxy)pyridazin-3-yl)phenyl)-6-(trifluoromethyl)pyridazine-4-carboxamide], the pIC50 was 9.22.

In the case of `Cc1ccc(NC(=O)c2ccnc(C(C)(C)C#N)c2)cc1-c1cc(N2CCOCC2)c(OC(C)C)nn1` [Example 596, 2-(2-cyanopropan-2-yl)-N-(3-(6-isopropoxy-5-morpholinopyridazin-3-yl)-4-methylphenyl)isonicotinamide], the pIC50 is 8.89.

`CCNc1nc(-c2cc(C(=O)Nc3cccc(C(F)(F)F)c3)ccc2C)cc(N2CCOCC2)n1` [Example 710, 3-(2-(ethylamino)-6-morpholinopyrimidin-4-yl)-4-methyl-N-(3-(trifluoromethyl)phenyl)benzamide]: the pIC50 is 8.40.

`Cc1ncc(NC(=O)c2cccc(C(F)(F)F)c2)cc1-c1cc(N2CCOCC2)nc(NC[C@@H](C)O)n1` [Example 743, (R)—N-(5-(2-((2-hydroxypropyl)amino)-6-morpholinopyrimidin-4-yl)-6-methylpyridin-3-yl)-3-(trifluoromethyl)benzamide] showed a pIC50 of 8.43.

Regarding `CCn1cc(C(=O)Nc2ccc(C)c(-c3cc4[nH]cnc4c(N4CCOCC4)n3)c2)c(C)n1` [Example 814, 1-ethyl-3-methyl-N-(4-methyl-3-(4-morpholino-1H-imidazo[4,5-c]pyridin-6-yl)phenyl)-1H-pyrazole-4-carboxamide], the pIC50 is 7.49.

Compound `Cc1ccc(NC(=O)c2cn(C)nc2C)cc1-c1cc2[nH]cnc2c(N2CCOCC2)n1` [Example 815, 1,3-dimethyl-N-(4-methyl-3-(4-morpholino-1H-imidazo[4,5-c]pyridin-6-yl)phenyl)-1H-pyrazole-4-carboxamide] had a pIC50 of 7.00.

`Cc1ccc(NC(=O)c2cn(C(C)C)nc2C)cc1-c1cc2[nH]cnc2c(N2CCOCC2)n1` [Example 816, 1-isopropyl-3-methyl-N-(4-methyl-3-(4-morpholino-1H-imidazo[4,5-c]pyridin-6-yl)phenyl)-1H-pyrazole-4-carboxamide] showed a pIC50 of 7.76.

On to `Cc1cc(C(=O)Nc2ccc(C)c(-c3cc4[nH]cnc4c(N4CCOCC4)n3)c2)n(C)n1` [Example 817, 1,3-dimethyl-N-(4-methyl-3-(4-morpholino-1H-imidazo[4,5-c]pyridin-6-yl)phenyl)-1H-pyrazole-5-carboxamide], for which the pIC50 was 6.70.

In turn, `Cc1ccc(NC(=O)c2cc(C3CC3)nn2C)cc1-c1cc2[nH]cnc2c(N2CCOCC2)n1` [Example 818, 3-cyclopropyl-1-methyl-N-(4-methyl-3-(4-morpholino-1H-imidazo[4,5-c]pyridin-6-yl)phenyl)-1H-pyrazole-5-carboxamide] showed a pIC50 of 7.74.

In turn, `Cc1ccc(NC(=O)c2cc(C3CC3)on2)cc1-c1cc2[nH]cnc2c(N2CCOCC2)n1` [Example 820, 5-cyclopropyl-N-(4-methyl-3-(4-morpholino-1H-imidazo[4,5-c]pyridin-6-yl)phenyl)isoxazole-3-carboxamide] showed a pIC50 of 8.85.

`Cc1ccc(NC(=O)c2cccc(-c3nnco3)c2)cc1-c1cc2[nH]cnc2c(N2CCOCC2)n1` [Example 822, N-(4-methyl-3-(4-morpholino-1H-imidazo[4,5-c]pyridin-6-yl)phenyl)-3-(1,3,4-oxadiazol-2-yl)benzamide] gave a pIC50 of 8.11.

The compound `Cc1ccc(NC(=O)c2ccnc(C(C)(C)O)c2)cc1-c1cc2[nH]cnc2c(N2CCOCC2)n1` [Example 823, 2(2-hydroxypropan-2-yl)-N-(4-methyl-3-(4-morpholino-1H-imidazo[4,5-c]pyridin-6-yl)phenyl)isonicotinamide] showed a pIC50 of 8.03.

On to `Cc1ccc(NC(=O)c2cccc(C(F)(F)F)c2)cc1-c1nc2c(c(N3CCOCC3)n1)CCNC2` [Example 834, N-(4-methyl-3-(4-morpholino-5,6,7,8-tetrahydropyrido[3,4-d]pyrimidin-2-yl)phenyl)-3-(trifluoromethyl)benzamide], for which the pIC50 is 9.22.

The compound `CNCc1ccc(C(=O)Nc2ccc(C)c(-c3cc(N4CCOCC4)c4nccn4c3)c2)cc1C(F)(F)F` [Example 853, N-(4-methyl-3-(8-morpholinoimidazo[1,2-a]pyridin-6-yl)phenyl)-4-((methylamino)methyl)-3-(trifluoromethyl)benzamide] had a pIC50 of 8.62.

For `CNCc1ccc(C(=O)Nc2cnc(C)c(-c3cc(N4CCOCC4)c4nccn4c3)c2)cc1C(F)(F)F` [Example 885, N-(6-methyl-5-(8-morpholinoimidazo[1,2-a]pyridin-6-yl)pyridin-3-yl)-4-((methylamino)methyl)-3-(trifluoromethyl)benzamide], the pIC50 was 7.91.

Consider `Cc1ncc(NC(=O)c2cccc(C(F)(F)F)c2)cc1-c1cnc(O[C@H](C)CO)c(N2CCOCC2)c1` [Example 1021, (R)—N-(6′-((1-hydroxypropan-2-yl)oxy)-2-methyl-5′-morpholino-[3,3′-bipyridin]-5-yl)-3-(trifluoromethyl)benzamide], for which the pIC50 was 8.59.

For the compound `Cc1ncc(NC(=O)c2cccc(C(F)(F)F)c2)cc1-c1cnc(OC[C@H](C)O)c(N2CCOCC2)c1` [Example 1022, (S)—N-(6′-(2-hydroxypropoxy)-2-methyl-5′-morpholino-[3,3′-bipyridin]-5-yl)-3-(trifluoromethyl)benzamide], the pIC50 was 8.83.

In turn, `Cc1ccc(NC(=O)c2ccnc(C(C)(F)F)c2)cc1-c1ccnc(N2CCOCC2)c1` [Example 1137, 2-(1,1-difluoroethyl)-N-(4-methyl-3-(2-morpholinopyridin-4-yl)phenyl)isonicotinamide] gave a pIC50 of 9.21.
